In patent publication US20240139167A1, “LYSOSOME-ASSOCIATED MEMBRANE PROTEIN TARGETING COMPOUNDS AND USES THEREOF” (HADASIT MEDICAL RESEARCH SERVICES AND DEVELOPMENT LTD., priority 2021, published 2024):

Columns and labels:
[1] = system: skin fibroblasts derived from Gsd1a patients; assay: NAD+/NADH ratio, Sirt1 and p62 expression; assay type: cell-based, human; conditions: 50 μM, 24 h
Protocol: FIG. 21 includes vertical bar graphs showing skin fibroblasts derived from Gsd1a patients were treated with solvent or 50 μM Compound A for 24 h and analyzed for NAD+/NADH ratio by the Promega kit (left panel) and for Sirt1 (middle panel) and p62 (right panel) expression by western immunoblotting.
NAD+ and NADH are key precursors for the electron transfer chain, TCA cycle, glycolysis, amino acid synthesis, fatty acid synthesis, and nucleotide synthesis. The NAD+/NADH ratio reports the extent of overall catabolism and the balance between glycolysis and OxPhos. The increase in the NAD+/NADH ratio means acceleration of electron flow in the mitochondrial electron transport chain (note, not mitochondrial ATP production) and of glycolysis to better manage metabolic demands. Furthermore, Sirt1 induction, often associated with increased NAD+/NADH ratio, is a well-documented and innovative anti-aging, calorie restriction-mimic and anti-cancer therapeutic strategy (see for example Hyun et al., (2020)). Thus, the results in Gsd1a cells (FIG. 21), showing induction of the NAD+/NADH ratio, as well as Sirt1, indicate that 144DG11 is a promising therapy for a plethora of different metabolic disorders, aging-related complications, and cancer.

[2] = Irwin test (abnormal spontaneous behavior); assay type: in vivo, mice; parameters: Wounds / Transfer behavior / Tremor / Gait / Tail elevation / Touch escape / Trunk curl / Righting reflex / Salivation / Extension reflex: scale not given here
Source text: The inventors have tested Compound 1 (FIG. 1A) for its capacity to correct the deficient motor phenotypes and short lifespan in the APBD mouse model Gbe^ys/ys. Compound 1 is one of 19 PG reducing HTS hits previously discovered by the inventors. It was selected by in silico ADMET (Absorption, Distribution, Metabolism, Excretion, and Toxicity) tests run on these hits to predict which of them should be safe and pharmacokinetically and pharmacodynamically preferred and is therefore worth further pursuit (FIG. 8, compound “A”). […] Following 1 h and 24 h treatments, mice were also examined for abnormal spontaneous behavior, such as immobility, excessive running, stereotyped movements, and abnormal posture (Irwin tests).

COCCN(Cc1sccc1C)C(=O)c1cc(C)nc(O)c1 [Compound 1]
Black: Coat color ([2]; 50 mg/kg, 1 h) | Coat color ([2]; 50 mg/kg, 24 h) | Coat color ([2]; 250 mg/kg, 1 h) | Coat color ([2]; 250 mg/kg, 24 h)
5: Transfer behavior ([2]; 50 mg/kg, 1 h) | Transfer behavior ([2]; 50 mg/kg, 24 h) | Transfer behavior ([2]; 250 mg/kg, 1 h) | Transfer behavior ([2]; 250 mg/kg, 24 h)
did not cause any adverse effect: adverse effect in Irwin tests ([2]; 1 h and 24 h treatments)
1: Tail elevation ([2]; 50 mg/kg, 1 h) | Tail elevation ([2]; 50 mg/kg, 24 h) | Tail elevation ([2]; 250 mg/kg, 1 h) | Tail elevation ([2]; 250 mg/kg, 24 h)
downmodulated: p62 expression [1]
3: Presence of whiskers ([2]; 50 mg/kg, 1 h) | Presence of whiskers ([2]; 50 mg/kg, 24 h) | Body position ([2]; 250 mg/kg, 1 h) | Presence of whiskers ([2]; 250 mg/kg, 1 h) | Body position ([2]; 250 mg/kg, 24 h) | Presence of whiskers ([2]; 250 mg/kg, 24 h)
3.5: Body position ([2]; 50 mg/kg, 1 h) | Body position ([2]; 50 mg/kg, 24 h)
induction: NAD+/NADH ratio [1] | Sirt1 expression [1]
0: Gait ([2]; 50 mg/kg, 1 h) | Patches of missing fur on body ([2]; 50 mg/kg, 1 h) | Patches of missing fur on face ([2]; 50 mg/kg, 1 h) | Piloerection ([2]; 50 mg/kg, 1 h) | Positional passivity ([2]; 50 mg/kg, 1 h) | Righting reflex ([2]; 50 mg/kg, 1 h) | Salivation ([2]; 50 mg/kg, 1 h) | Tremor ([2]; 50 mg/kg, 1 h) | Trunk curl ([2]; 50 mg/kg, 1 h) | Wounds ([2]; 50 mg/kg, 1 h) | Gait ([2]; 50 mg/kg, 24 h) | Patches of missing fur on body ([2]; 50 mg/kg, 24 h) | Patches of missing fur on face ([2]; 50 mg/kg, 24 h) | Piloerection ([2]; 50 mg/kg, 24 h) | Positional passivity ([2]; 50 mg/kg, 24 h) | Righting reflex ([2]; 50 mg/kg, 24 h) | Salivation ([2]; 50 mg/kg, 24 h) | Tremor ([2]; 50 mg/kg, 24 h) | Trunk curl ([2]; 50 mg/kg, 24 h) | Wounds ([2]; 50 mg/kg, 24 h) | Gait ([2]; 250 mg/kg, 1 h) | Patches of missing fur on body ([2]; 250 mg/kg, 1 h) | Patches of missing fur on face ([2]; 250 mg/kg, 1 h) | Piloerection ([2]; 250 mg/kg, 1 h) | Positional passivity ([2]; 250 mg/kg, 1 h) | Righting reflex ([2]; 250 mg/kg, 1 h) | Salivation ([2]; 250 mg/kg, 1 h) | Tremor ([2]; 250 mg/kg, 1 h) | Trunk curl ([2]; 250 mg/kg, 1 h) | Wounds ([2]; 250 mg/kg, 1 h) | Gait ([2]; 250 mg/kg, 24 h) | Patches of missing fur on body ([2]; 250 mg/kg, 24 h) | Patches of missing fur on face ([2]; 250 mg/kg, 24 h) | Piloerection ([2]; 250 mg/kg, 24 h) | Positional passivity ([2]; 250 mg/kg, 24 h) | Righting reflex ([2]; 250 mg/kg, 24 h) | Salivation ([2]; 250 mg/kg, 24 h) | Tremor ([2]; 250 mg/kg, 24 h) | Trunk curl ([2]; 250 mg/kg, 24 h) | Wounds ([2]; 250 mg/kg, 24 h)
2: Appearance of fur ([2]; 50 mg/kg, 1 h) | Extension reflex ([2]; 50 mg/kg, 1 h) | Pelvic elevation ([2]; 50 mg/kg, 1 h) | Touch escape ([2]; 50 mg/kg, 1 h) | Appearance of fur ([2]; 50 mg/kg, 24 h) | Extension reflex ([2]; 50 mg/kg, 24 h) | Pelvic elevation ([2]; 50 mg/kg, 24 h) | Touch escape ([2]; 50 mg/kg, 24 h) | Appearance of fur ([2]; 250 mg/kg, 1 h) | Extension reflex ([2]; 250 mg/kg, 1 h) | Pelvic elevation ([2]; 250 mg/kg, 1 h) | Touch escape ([2]; 250 mg/kg, 1 h) | Appearance of fur ([2]; 250 mg/kg, 24 h) | Extension reflex ([2]; 250 mg/kg, 24 h) | Pelvic elevation ([2]; 250 mg/kg, 24 h) | Touch escape ([2]; 250 mg/kg, 24 h)
